Among the data in US20090325959A1 (priority 2008, published 2009) are Ki values, retold here.

Common to all, as to format: biochemical
In test [1] the target is T1, ROCK1 (Homo sapiens, UniProt Q13464).
T1 construct: purchased Upstate/Chemicon 14-601
Description: Rho kinase inhibition assay (IMAP fluorescence polarization), ROCK1.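 Also: kinase reaction run 60 min at room temperature, then phosphorylated substrate captured on IMAP beads for 30 min, with fluorescence polarization read in mP.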 The conditions noted are these: Avg, 10 μM ATP.
Description: (§1) Following the pre-incubation, 10 μM ATP was added to initiate the reaction. After 60 minutes at room temperature, Molecular Devices IMAP™ binding solution was added to bind phosphorylated substrate. After 30 minutes of incubation in the presence of the IMAP™ beads, the fluorescence polarization was read and the ratio was reported as mP. IC50 values for compounds and EC50 values for ATP were calculated using the Prism software from Graphpad.

Test [2] concerns the target T2, p70S6K human enzyme (Homo sapiens, UniProt P23443, T412E).
T2 construct: purchased Upstate Chemicon 14-486
The test can be described thus: p70S6K inhibition assay (IMAP FP).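 Also: kinase reaction run at room temperature, phosphorylated substrate captured on IMAP beads and read as fluorescence polarization in mP, IC50 then converted to Ki.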 The conditions noted are these: 30 μM ATP; Ki=IC50/(1+([ATP Challenge]/EC50 ATP)); read-out: p70S6K Ki, Avg.
Description: Inhibition of Akt3 and p70S6K activity was determined using the IMAP™ FP Progressive Binding Kit (Molecular Devices product number R8127). […] Following the pre-incubation, 30 μM ATP was added to initiate the reaction. After 60 minutes at RT, Molecular Devices IMAP™ binding solution was added to bind phosphorylated substrate. After 30 minutes of incubation in the presence of the IMAP™ beads the fluorescence polarization was read and the ratio was reported as mP. IC50 results were calculated using the Prism software from Graphpad. The Ki values were determined according to the following formula: Ki=IC50/(1+([ATP Challenge]/EC50 ATP)).

Test [3] concerns the target T3, ROCK2 (Homo sapiens, UniProt O75116).
T3 construct: purchased Upstate/Chemicon 14-451
Description: Rho kinase inhibition assay (IMAP fluorescence polarization), ROCK2.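 Also: kinase reaction started with 10 µM ATP and run 60 min at room temperature, then phosphorylated substrate captured on IMAP beads for 30 min and fluorescence polarization read in mP.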 The conditions noted are these: 10 μM ATP; read-out: ROCK2 Ki, Avg. On the technique in general: Fluorescence polarisation rises when a labelled molecule tumbles more slowly, as on binding a larger partner.
Description: as §1

Test [4] addresses T4, Akt3 human enzyme (Homo sapiens, UniProt Q9Y243).
T4 construct: purchased Upstate Chemicon 14-502
The test can be described thus: Akt3 inhibition assay (IMAP FP).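 Also: kinase reaction run 60 min at room temperature after 30 µM ATP start, phosphorylated substrate captured on IMAP beads and read as fluorescence polarization (mP).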 As to conditions: 30 μM ATP; Ki=IC50/(1+([ATP Challenge]/EC50 ATP)); read-out: Akt3 Ki, Avg.

Molecules are shown by their SMILES.

T2 sequence (P23443 1-421 T412E limits assumed): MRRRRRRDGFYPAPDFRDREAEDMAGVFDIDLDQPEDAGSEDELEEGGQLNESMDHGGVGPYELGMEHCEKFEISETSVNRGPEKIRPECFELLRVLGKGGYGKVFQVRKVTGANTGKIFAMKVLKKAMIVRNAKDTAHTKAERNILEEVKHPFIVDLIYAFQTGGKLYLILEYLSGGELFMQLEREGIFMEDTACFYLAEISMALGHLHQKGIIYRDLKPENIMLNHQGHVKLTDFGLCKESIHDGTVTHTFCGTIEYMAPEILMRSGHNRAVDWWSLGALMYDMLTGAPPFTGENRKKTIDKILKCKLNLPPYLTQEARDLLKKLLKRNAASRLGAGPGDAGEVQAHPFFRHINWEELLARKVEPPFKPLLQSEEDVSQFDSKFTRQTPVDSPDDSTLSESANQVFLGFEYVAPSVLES
T1 sequence (Q13464 17-535 limits assumed): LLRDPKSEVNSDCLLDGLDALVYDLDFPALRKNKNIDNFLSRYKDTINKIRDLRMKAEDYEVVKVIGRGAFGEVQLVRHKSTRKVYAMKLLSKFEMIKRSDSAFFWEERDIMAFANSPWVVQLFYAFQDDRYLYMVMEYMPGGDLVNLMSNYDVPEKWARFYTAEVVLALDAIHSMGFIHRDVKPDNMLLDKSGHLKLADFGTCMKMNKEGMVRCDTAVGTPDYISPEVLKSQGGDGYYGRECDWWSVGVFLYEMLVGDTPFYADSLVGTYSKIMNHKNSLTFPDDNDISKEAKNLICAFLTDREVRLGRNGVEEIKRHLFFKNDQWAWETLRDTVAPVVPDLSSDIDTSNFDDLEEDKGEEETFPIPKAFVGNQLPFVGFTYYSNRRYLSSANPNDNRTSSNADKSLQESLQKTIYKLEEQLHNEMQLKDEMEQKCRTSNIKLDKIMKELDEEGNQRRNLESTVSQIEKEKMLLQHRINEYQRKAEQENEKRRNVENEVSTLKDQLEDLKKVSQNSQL
T3 sequence (O75116 11-552 limits assumed): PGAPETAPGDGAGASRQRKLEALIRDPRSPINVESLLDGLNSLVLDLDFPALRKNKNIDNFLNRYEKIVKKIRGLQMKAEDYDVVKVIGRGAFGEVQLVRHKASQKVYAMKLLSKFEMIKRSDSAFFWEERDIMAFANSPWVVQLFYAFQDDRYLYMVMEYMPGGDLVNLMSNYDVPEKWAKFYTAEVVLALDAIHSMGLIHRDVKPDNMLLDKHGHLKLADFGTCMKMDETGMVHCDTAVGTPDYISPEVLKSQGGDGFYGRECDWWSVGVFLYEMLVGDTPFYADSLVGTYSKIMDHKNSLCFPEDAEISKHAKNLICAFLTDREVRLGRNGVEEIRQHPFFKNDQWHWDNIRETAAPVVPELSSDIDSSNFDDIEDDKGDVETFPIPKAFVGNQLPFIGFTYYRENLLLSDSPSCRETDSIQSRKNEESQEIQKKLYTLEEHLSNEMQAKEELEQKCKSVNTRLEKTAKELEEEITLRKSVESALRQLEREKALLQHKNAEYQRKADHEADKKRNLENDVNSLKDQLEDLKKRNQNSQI
T4 sequence (Q9Y243 whole entry): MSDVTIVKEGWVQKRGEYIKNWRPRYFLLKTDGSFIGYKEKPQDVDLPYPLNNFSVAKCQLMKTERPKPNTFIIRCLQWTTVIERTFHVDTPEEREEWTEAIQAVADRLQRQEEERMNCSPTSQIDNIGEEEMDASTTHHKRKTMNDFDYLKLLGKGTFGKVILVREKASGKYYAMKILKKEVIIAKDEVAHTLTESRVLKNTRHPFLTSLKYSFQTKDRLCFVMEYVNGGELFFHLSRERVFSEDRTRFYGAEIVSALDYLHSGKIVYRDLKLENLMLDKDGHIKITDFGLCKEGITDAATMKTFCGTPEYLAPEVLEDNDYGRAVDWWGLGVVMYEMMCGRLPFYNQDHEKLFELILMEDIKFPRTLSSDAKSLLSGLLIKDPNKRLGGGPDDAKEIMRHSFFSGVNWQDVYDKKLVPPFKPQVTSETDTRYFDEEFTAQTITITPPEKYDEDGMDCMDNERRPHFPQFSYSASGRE

By Ki is commonly meant a measure of affinity in units of concentration, obtained from inhibition or displacement. For the molecule `Clc1cccc(CN2CCC[C@H](Nc3ccc4[nH]ncc4c3)C2)c1` [Compound 1.170, (S)-N-(1-(3-chlorobenzyl)piperidin-3-yl)-1H-indazol-5-amine], the Ki in test [1] was 80 nM; in test [2], 2050 nM; in test [3], 12.5 nM; in test [4] it was 7810 nM.

Turning to `Oc1cccc(CN2CCC[C@@H](Nc3ccc4[nH]ncc4c3)C2)c1` [Compound 1.145, (R)-3-((3-(1H-indazol-5-ylamino)piperidin-1-yl)methyl)phenol], the Ki in test [1] is 35 nM; in test [2], 2300 nM; in test [3], 6.4 nM; in test [4], 1190 nM.

Turning to `c1cc2c(cc1CN1CCC[C@@H](Nc3ccc4[nH]ncc4c3)C1)CCO2` [Compound 1.246, (R)-N-(1-((2,3-dihydrobenzofuran-5-yl)methyl)piperidin-3-yl)-1H-indazol-5-amine], the Ki was found to be 92.1 nM in test [1], 1880 nM in test [2], 11.2 nM in test [3] and 1100 nM in test [4].

With `COc1ccc(CN2CCC[C@@H](Nc3ccc4[nH]ncc4c3)C2)cc1` [Compound 1.226, (R)-N-(1-(4-methoxybenzyl)piperidin-3-yl)-1H-indazol-5-amine], the Ki in test [1] was 91.7 nM; in test [2] it was 1350 nM; in test [3], 8.8 nM; in test [4] it was 531 nM.

As for `c1cc(C2CC2)ccc1CN1CCC[C@H](Nc2ccc3[nH]ncc3c2)C1` [Compound 1.185, (S)-N-(1-(4-cyclopropylbenzyl)piperidin-3-yl)-1H-indazol-5-amine], the Ki turned out to be 81.6 nM in test [1], 1150 nM in test [2], 12.6 nM in test [3] and 4220 nM in test [4].

Consider `CSc1cccc(CN2CCC[C@@H](Nc3ccc4[nH]ncc4c3)C2)c1` [Compound 1.159, (R)-N-(1-(3-(methylthio)benzyl)piperidin-3-yl)-1H-indazol-5-amine], for which the Ki in test [1] was 48.1 nM; in test [2], 2060 nM; in test [3], 10.1 nM; in test [4], 1230 nM.

For `c1ccc(CN2CCC[C@H](Nc3ccc4[nH]ncc4c3)C2)cc1` [Compound 1.227, (S)-N-(1-benzylpiperidin-3-yl)-1H-indazol-5-amine], the Ki in test [1] was determined as 47.5 nM; in test [2] it was 1580 nM; in test [3] it was 5.3 nM; in test [4] it was 3480 nM.

For `Brc1ccc(CN2CCC[C@H](Nc3ccc4[nH]ncc4c3)C2)cc1` [Compound 1.142, (S)-N-(1-(4-bromobenzyl)piperidin-3-yl)-1H-indazoi-5-amine], the Ki came out at 104 nM in test [1], 2520 nM in test [2], 12 nM in test [3] and 8270 nM in test [4].

As for `CCc1ccc(CN2CCC[C@H](Nc3ccc4[nH]ncc4c3)C2)cc1` [Compound 1.154, (S)-N-(1-(4-ethylbenzyl)piperidin-3-yl)-1H-indazol-5-amine], the Ki in test [1] was found to be 52.7 nM; in test [2] it was 1130 nM; in test [3], 6.6 nM; in test [4] it was 4950 nM.

On to `c1cc2cc(CN3CCC[C@@H](Nc4ccc5[nH]ncc5c4)C3)ccc2[nH]1` [Compound 1.143, (R)-N-(1-((1H-indol-5-yl)methyl)piperidin-3-yl)-1H-indazol-5-amine], for which the Ki in test [1] came to 49.7 nM; in test [2], 538 nM; in test [3], 12.6 nM; in test [4], 707 nM.

Consider `Fc1ccc(CN2CCC[C@@H](Nc3ccc4[nH]ncc4c3)C2)cc1` [Compound 1.146, (R)-N-(1-(4-fluorobenzyl)piperidin-3-yl)-1H-indazol-5-amine], for which the Ki came out at 39.8 nM in test [1], 742 nM in test [2], 10.7 nM in test [3] and 205 nM in test [4].

Regarding `O=C(COc1cccc(CN2CCC[C@@H](Nc3ccc4[nH]ncc4c3)C2)c1)N1CCOCC1` [Compound 1.127, (R)-2-(3-((3-(1H-indazol-5-ylamino)piperidin-1-yl)methyl)phenoxy)-1-morpholinoethanone], the Ki in test [1] was determined as 96.6 nM; in test [2], 2070 nM; in test [3] it was 11.2 nM; in test [4] it was 975 nM.
